Experimental data reported in ChEMBL document CHEMBL3217503, “Antivascular and anticancer activity of dihalogenated A-ring analogues of combretastatin A-4” (Medchemcomm, 2010).
pEC50: −log10 of the molar value. Activity calls are given as the source filed them. The calls are words filed in the database; no cut-off is given here.

Assays:
SK-OV-3 [1] = assay: Cell cycle arrest in human SKOV3 cells assessed as accumulation at G2/M phase at 5 nM after 24 hrs by propidium iodide staining-based flow cytometry (reference value: 13.6%); format: functional
SK-OV-3 [2] = assay: Cell cycle arrest in human SKOV3 cells assessed as accumulation at S phase at 5 nM after 24 hrs by propidium iodide staining-based flow cytometry (reference value: 31.2%); format: functional
HUVEC [3] = assay: Antivascular activity in growth factor-induced HUVEC after 24 hrs xCELLigence analysis; format: functional, cell-based; settings: Homo sapiens
SK-OV-3 [4] = assay: Cell cycle arrest in human SKOV3 cells assessed as accumulation at G1 phase at 5 nM after 24 hrs by propidium iodide staining-based flow cytometry (reference value: 54.4%); format: functional
HUVEC [5] = assay: Antivascular activity in growth factor-induced HUVEC after 45 hrs xCELLigence analysis; format: functional, cell-based; settings: Homo sapiens
K562 = assay: Cytotoxicity against human K562 cells; format: functional, cell-based
HeLa [6] = assay: Antimitotic activity in human HeLa cells assessed as depolymerisation of interphase microtubule network at 10 to 100 nM after 16 hrs by Hoechst staining-based confocal microscopy; format: functional, cell-based
SK-OV-3 [7] = assay: Cytotoxicity against taxol-resistant human SKOV3 cells assessed as cell viability after 48 hrs by MTS assay; format: functional, cell-based; settings: SK-OV-3, 48 h
HeLa [8] = assay: Antimitotic activity in human HeLa cells assessed as change in interphase microtubule network at 1 nM after 16 hrs by Hoechst staining-based confocal microscopy; format: functional, cell-based
PBMC = assay: Cytotoxicity in human PBMC assessed as cell viability up to 10 uM after 48 hrs by MTS assay; format: cell-based
HUVEC [9] = assay: Antiproliferative activity against growth factor-induced HUVEC assessed as growth inhibition after 48 hrs by MTS assay; format: functional, cell-based; settings: Homo sapiens
SK-OV-3 [10] = assay: Cytotoxicity against human SKOV3 cells assessed as cell viability after 48 hrs by MTS assay; format: functional, cell-based; settings: SK-OV-3, 48 h
HeLa [11] = assay: Cytotoxicity against human HeLa cells assessed as cell viability after 48 hrs by MTS assay; format: functional, cell-based
SK-OV-3 [12] = assay: Cell cycle arrest in human SKOV3 cells assessed as accumulation at G2/M phase at 200 nM after 24 hrs by propidium iodide staining-based flow cytometry (reference value: 13.6%); format: functional
SK-OV-3 [13] = assay: Antimitotic activity in human SKOV3 cells at 1 to 100 nM after 16 hrs by Hoechst staining-based confocal microscopy; format: functional, cell-based
HeLa [14] = assay: Antimitotic activity in human HeLa cells expressing GFP-tagged tubulin assessed as membrane blebbing during interphase at 10 to 100 nM after 31 to 34 mins by fluorescence-based spinning-disk confocal microscopy; format: functional, cell-based
SK-OV-3 [15] = assay: Antimitotic activity in taxol-resistant human SKOV3 cells at 1 to 100 nM after 16 hrs by Hoechst staining-based confocal microscopy; format: functional, cell-based
HeLa [16] = assay: Antimitotic activity in human HeLa cells assessed as membrane blebbing at 0.1 to 1 uM after 16 hrs by Hoechst staining-based confocal microscopy; format: functional, cell-based
HeLa [17] = assay: Antimitotic activity in human HeLa cells expressing GFP-tagged tubulin assessed as disappearance of mitotic spindle during metaphase at 10 to 100 nM after 21 to 36 mins by fluorescence-based spinning-disk confocal microscopy; format: functional, cell-based
HeLa [18] = assay: Antimitotic activity in human HeLa cells assessed as depolymerisation of interphase microtubule network at 0.1 to 1 uM after 16 hrs by Hoechst staining-based confocal microscopy; format: functional, cell-based
HeLa [19] = assay: Antimitotic activity in human HeLa cells assessed as disproportionate mitotic cells at 10 nM after 16 hrs by Hoechst staining-based confocal microscopy; format: functional, cell-based
HeLa [20] = assay: Antimitotic activity in human HeLa cells expressing GFP-tagged tubulin assessed as collapse of mitotic spindle during anaphase at 10 nM after 31 mins by fluorescence-based spinning-disk confocal microscopy; format: functional, cell-based
HeLa [21] = assay: Antimitotic activity in human HeLa cells assessed as redistribution of microtubules around nuclear envelope of cells at 100 nM after 16 hrs by Hoechst staining-based confocal microscopy; format: functional, cell-based
HeLa [22] = assay: Antimitotic activity in human HeLa cells expressing GFP-tagged tubulin assessed as membrane blebbing during interphase at 10 nM after 51 mins by fluorescence-based spinning-disk confocal microscopy; format: functional, cell-based

SMILES | Activity (SK-OV-3 [1]) | Activity (SK-OV-3 [2]) | pEC50 (HUVEC [3]) | Activity (SK-OV-3 [4]) | pEC50 (HUVEC [5]) | pEC50 (K562) | also measured
COc1ccc(/C=C\c2cc(Cl)c(OC)c(Cl)c2)cc1O | 32.2% | 18.6% | 8.59 | 43.7% | 8.64 |  | 
COc1ccc(/C=C\c2cc(C)c(C)c(C)c2)cc1O |  |  |  |  |  | 7.70 | 
COc1ccc(/C=C\c2cc(OC)c(OC)c(OC)c2)cc1O [COMBRETASTATIN A4] | 30.5% | 23.1% | 8.72 | 40.1% | 9.05 | 9.00 | Activity (HeLa [6]): Active; pEC50 (SK-OV-3 [7]): 8.51; Activity (HeLa [8]): inactive; Activity (PBMC): Non-toxic; pEC50 (HUVEC [9]): 8.49; pEC50 (SK-OV-3 [10]): 8.92; pEC50 (HeLa [11]): 8.85
COc1ccc(/C=C\c2ccccc2)cc1O |  |  |  |  |  | 6.30 | 
COc1ccc(/C=C\c2cc(F)c(OC)c(F)c2)cc1O |  |  | 6.71 |  | 6.65 |  | Activity (SK-OV-3 [12]): 73.7%
COc1ccc(/C=C\c2cc(I)c(OC)c(I)c2)cc1O | 83.6% | 12.9% | 9.05 | 1.3% | 9.05 |  | 
COc1ccc(/C=C\c2ccc(C)c(C)c2)cc1O |  |  |  |  |  | 7.15 | 
COc1ccc(/C=C\c2cc(Br)c(OC)c(Br)c2)cc1O | 51.5% | 21% | 8.66 | 25.7% | 8.96 |  | Activity (SK-OV-3 [13]): Active; Activity (HeLa [14]): Active; pEC50 (SK-OV-3 [7]): 8.96; Activity (SK-OV-3 [15]): Active; Activity (HeLa [16]): Active; Activity (HeLa [17]): Active; Activity (HeLa [18]): Active; Activity (HeLa [19]): Active; Activity (PBMC): Non-toxic; pEC50 (HUVEC [9]): 9.70; pEC50 (SK-OV-3 [10]): 8.77; Activity (HeLa [20]): Active; Activity (HeLa [21]): Active; pEC50 (HeLa [11]): 8.17; Activity (HeLa [22]): Active
